Results taken from patent US7807719B2, “Compounds useful for modulating abnormal cell proliferation” (priority 2004, dated 2010).

Legend:
Assay type in all cases: cell-based
Z119 cells = assay: Killing of Philadelphia positive Z119 acute lymphoblastic leukemia cells in culture (colony assay); details: Z119 Philadelphia positive ALL cells, methylcellulose colony count at 7-9 days; read-out: ALL (Z 119) IC50
Protocol: Z119 cells were plated in 1 ml volumes at a density of 5×10^4 cells/ml, in the absence of exogenous growth factors, into 35 mm petri dishes (Nunc, Gibco) containing IMDM (OCI, Toronto) plus 20% FCS (Cansera Rexdale, ON.) in 0.9% (vol/vol) methylcellulose (Fluka, Switzerland) with the indicated concentration of for various test compounds described above. Cultures were set at 37° C., 5% CO2 in a humidified atmosphere. Colonies consisting of more than 20 cells were counted at 7-9 days using an inverted microscope.

[1] = tested on: normal bone marrow cells (BFU-E); assay: Effect upon normal bone marrow differentiation in culture (CFU-GEMM assay, BFU-E colonies); details: Bone marrow cell, 336 h, BFU-E colonies evaluated at 14 days, read-out: NBM (BFU-E) IC50
Protocol: The CFU-GEMM assay was performed according to Fauser and Messner (1978, Blood, 52(6) 143-8) and Messner and Fausser (1980, Blut, 41(5) 327-33) with some variations. In brief, heparinized bone marrow cells were layered over Percoll (1.077 gm/ml) (Pharmacia Fine Chemical, Piscataway N.J.) and centrifuged at 400 g at 4° C. for 10 minutes to remove neutrophils and RBCs. The fractionated BM cells at 2×10^5 cells/ml were cultured in IMDM (OCI, Toronto) containing 0.9% (vol/vol) methylcellulose supplemented with 30% FCS (Cansera Rexdale, ON.) or normal human plasma, a cocktail of cytokines containing G-CSF (10 ng/ml, Amgen), IL-3 (40 U/ml, Immunex), MGF (50 ng/ml, Immunex), Erythropoietin (2 u/ml, Epprex) or TPO (10 ng/ml, Amgen), 5×10^−5 M β-2-mercaptoethanol and the specified concentration of CR4. The culture mixture was plated in 1 ml volumes into 35 mm petri dishes and incubated at 37° C., 5% CO2 in a humidified atmosphere. All cultures were evaluated at 14 days for the number of BFU-E colonies (defined as aggregates of more than 500 hemoglobinized cells or, 3 or more erythroid subcolonies), OFU-GM colonies (defined as granulocyte or monocyte-macrophage cells or both), CFU-Meg colonies (comprising 4 or more megakaryocytes) and CFU-GEMM colonies (a mixed population comprising of all elements).

OCI-AML-3 cells = assay: Killing of AML-3 acute myeloid leukemia cells in culture (colony assay); details: Homo sapiens, methylcellulose colony count at 5-6 days
Protocol: OCI-AML-3 cells were plated in 35 mm petri dishes (Nunc, Gibco) in 1 ml volumes at a density of 3.3×10^3 cells/ml, in the absence of exogenous growth factors, containing alpha MEM plus 30% FCS (Cansera, Rexdale Ont.), and 0.9% (vol/vol) methylcellulose (Fluka, Switzerland) and the indicated concentrations of for various test compounds described above. Cell cultures were incubated in a humidified atmosphere at 37° C. with 5% CO2. Colonies containing more than 20 cells were scored, using an inverted microscope, at 5-6 days.

C1 cells = assay: Killing of Philadelphia negative C1 acute lymphoblastic leukemia cells in culture (colony assay); details: C1 Philadelphia negative ALL cells, methylcellulose colony count in 5-7 days
Protocol: C1 (at 2×10^4 cells/ml) were plated in 1 ml volumes, in the absence of exogenous growth factors, into 35 mm Petri dishes (Nunc, Gibco) containing alpha MEM (Gibco) plus 10% FCS (Cansera Rexdale, Ont.) in 0.9% (vol/vol) methylcellulose (Fluka, Switzerland). Cultures were set up at 37° C. with 5% CO2 in a humidified atmosphere. Colonies consisting of more than 20 cells were counted in 5-7 days using an inverted microscope. For further information, see Leukemia, Vol. 6, No. 1, 1992, pg. 8-17 and Nature, Vol. 379, 15 Feb. 1996.

For `N#C/C(=C\C(Cl)=C\c1ccccc1)C(=O)NCc1ccc(O)c(O)c1` [CRC-47, 4-chloro-2-cyano-5-phenyl-penta-2E,4Z-dienoic acid 3,4-dihydroxybenzylamide], the IC50 (Z119 cells) was < 125 nM and the IC50 [1] was < 5000 nM.
With `N#C/C(=C\C=C\c1ccco1)C(=O)NCc1ccc(O)c(O)c1` [CRH-48, 2-cyano-5-furan-2-yl-penta-2E,4E-dienoic acid 3,4-dihydroxybenzylamide] the IC50 (OCI-AML-3 cells) was 230 nM, the IC50 (Z119 cells) was 250 to 500 nM and the IC50 (C1 cells) was ≥ 250 nM. For the same compound, the IC50 [1] was ≤ 10000 nM.
With `N#C/C(=C\C=C\c1cccnc1)C(=O)NCc1ccc(O)c(O)c1` [CRH-58, 2-cyano-5-pyridin-3-yl-penta-2E,4E-dienoic acid 3,4-dihydroxybenzylamide] the IC50 (OCI-AML-3 cells) was > 500 nM, the IC50 (Z119 cells) was 260 nM and the IC50 (C1 cells) was > 500 nM. The IC50 [1] was 7500 to 9800 nM.
In the case of `N#C/C(=C\C=C\c1cccnc1)C(=O)NCc1ccccc1` [CRH-59, 2-cyano-5-pyridin-3-yl-penta-2E,4E-dienoic acid benzylamide], the IC50 (Z119 cells) is reported as > 1000 nM and the IC50 [1] is reported as > 10000 nM.
For `N#C/C(=C\C=C\c1cccs1)C(=O)NCc1ccc(O)c(O)c1` [CRH-60, 2-cyano-5-thiophen-2-yl-penta-2E,4E-dienoic acid 3,4-dihydroxybenzylamide], the IC50 (Z119 cells) was < 500 nM and the IC50 [1] was 7100 nM.
In the case of `N#C/C(=C\C=C\c1cc(O)ccc1O)C(=O)NCc1ccccc1` [CRO-70, 2-Cyano-5-(2,5-dihydroxyphenyl)penta-2E,4E-dienoic acid benzylamide], the IC50 (OCI-AML-3 cells) is reported as > 500 nM, the IC50 (Z119 cells) is reported as 260 nM and the IC50 (C1 cells) is reported as > 500 nM. For the same compound, the IC50 [1] was 6900 nM.
With `N#C/C(=C\c1ccc(/C=C/c2ccccc2)cc1)C(=O)NCc1ccncc1` [CRS-75, 2-cyano-N-pyridin-4-ylmethyl-3-(4-trans-styrylphenyl)-E-acrylamide] the IC50 (OCI-AML-3 cells) was ≥ 500 nM, the IC50 (Z119 cells) was > 1000 nM and the IC50 (C1 cells) was ≥ 500 nM. For the same compound, the IC50 [1] was > 10000 nM.
With `N#C/C(=C\c1ccc(/C=C/c2ccncc2)cc1)C(=O)NCc1ccc(O)c(O)c1` [CRS-76, 2-cyano-N-(3,4-dihydroxybenzyl)-3-[4-(2-pyridin-4-yl-trans-vinyl)-phenyl]-E-acrylamide] the IC50 (Z119 cells) was > 1000 nM and the IC50 [1] was > 10000 nM.
`N#C/C(=C\c1ccc(/C=C/c2ccncc2)cc1)C(=O)NCc1ccncc1` [CRS-77, 2-cyano-N-pyridin-4-ylmethyl-3-[4-(2-pyridin-4-yl-trans-vinyl)phenyl]-E-acrylamide] was tested, and the IC50 (Z119 cells) was > 1000 nM and the IC50 [1] was > 10000 nM.
With `COc1cc(/C=C/C=C/C=C(\C#N)C(=O)NCc2ccc(O)c(O)c2)ccc1O` [CRT-67, 2-cyano-7-(4-hydroxy-3-methoxyphenyl)hepta-2E,4E,6E-trienoic acid 3,4-dihydroxybenzylamide] the IC50 (OCI-AML-3 cells) was > 500 nM, the IC50 (Z119 cells) was ≤ 500 nM and the IC50 (C1 cells) was > 500 nM. For the same compound, the IC50 [1] was 10200 nM.
With `N#C\C(=C/C=C/C=C/c1ccc(O)c(O)c1)C(=O)NCc1ccccc1` [CRT-88, 2-Cyano-7-(3,4-dihydroxyphenyl)hepta-2E,4E,6E-trienoic acid benzyl-amide] the IC50 (Z119 cells) was < 500 nM and the IC50 [1] was 3100 to 5400 nM.
